Reference: patent US10287255B2, “Compounds as histone deacetylase 6 inhibitors and pharmaceutical compositions comprising the same” (CHONG KUN DANG PHARMACEUTICAL CORP., priority 2014, dated 2019)
pIC50: −log10 of the molar value.

Columns and labels:
[1] = molecular target: T1, human recombinant HDAC6 (Homo sapiens, UniProt Q9UBN7); experiment: HDAC6 enzyme activity inhibition assay (in vitro, fluorimetric); type: biochemical; conditions: for HDAC6 selectivity (fold): HDAC6 selectivity over HDAC1; for pIC50: human recombinant HDAC6, fluorimetric kit, same protocol as HDAC1
T1 construct: purchased Calbiochem 382180
T1 sequence (Q9UBN7 1-1215): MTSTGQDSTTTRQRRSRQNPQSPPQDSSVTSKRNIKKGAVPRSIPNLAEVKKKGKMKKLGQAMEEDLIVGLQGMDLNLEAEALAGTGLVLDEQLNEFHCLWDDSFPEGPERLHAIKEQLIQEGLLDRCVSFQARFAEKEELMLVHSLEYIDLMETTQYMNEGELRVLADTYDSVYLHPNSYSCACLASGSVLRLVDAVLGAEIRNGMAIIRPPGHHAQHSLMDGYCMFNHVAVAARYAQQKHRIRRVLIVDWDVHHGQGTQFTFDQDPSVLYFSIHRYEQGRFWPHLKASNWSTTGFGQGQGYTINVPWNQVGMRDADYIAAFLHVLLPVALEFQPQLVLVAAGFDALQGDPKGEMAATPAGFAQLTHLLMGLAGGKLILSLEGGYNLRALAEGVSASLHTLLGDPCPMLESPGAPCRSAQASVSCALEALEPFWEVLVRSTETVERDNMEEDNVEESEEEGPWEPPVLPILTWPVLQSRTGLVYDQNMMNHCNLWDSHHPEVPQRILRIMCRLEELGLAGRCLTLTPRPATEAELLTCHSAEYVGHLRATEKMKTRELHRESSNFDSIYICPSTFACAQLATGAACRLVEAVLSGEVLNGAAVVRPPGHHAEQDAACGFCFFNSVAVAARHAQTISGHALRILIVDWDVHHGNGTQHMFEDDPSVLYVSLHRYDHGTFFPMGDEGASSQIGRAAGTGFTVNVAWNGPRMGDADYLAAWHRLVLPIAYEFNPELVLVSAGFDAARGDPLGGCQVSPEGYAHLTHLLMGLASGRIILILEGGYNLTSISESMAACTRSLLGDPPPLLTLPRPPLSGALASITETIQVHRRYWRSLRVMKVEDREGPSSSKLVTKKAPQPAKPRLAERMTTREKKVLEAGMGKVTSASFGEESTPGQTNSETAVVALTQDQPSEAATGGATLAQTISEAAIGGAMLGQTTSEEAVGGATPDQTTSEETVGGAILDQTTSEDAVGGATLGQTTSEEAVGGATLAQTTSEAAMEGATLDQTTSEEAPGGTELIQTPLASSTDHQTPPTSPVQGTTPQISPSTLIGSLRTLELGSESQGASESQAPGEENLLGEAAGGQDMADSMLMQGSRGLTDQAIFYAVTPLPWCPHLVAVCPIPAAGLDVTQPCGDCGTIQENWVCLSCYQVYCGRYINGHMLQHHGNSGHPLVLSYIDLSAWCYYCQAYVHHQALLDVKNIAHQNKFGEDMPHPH
Protocol: (§1) In order to examine the HDAC6 selectivity of the compounds of formula 1 of the present invention by HDAC1 and HDAC6 enzymatic activity inhibition assays, an experiment was performed using a conventional substance as a control.
(§2) HDAC enzyme activity was measured using a HDAC Fluorimetric Drug Discovery Kit (BML-AK511, 516, Enzo Life Science). For the HDAC1 enzyme activity test, human recombinant HDAC1 (BML-SE456) was used as an enzyme source, and Fluor de Lys®-“SIRT1 (BNL-KI177) was used as a substrate. A 5-fold dilution of the compound was seeded into a 96-well plate, and then 0.3 μg of the enzyme and 10 μM of the substrate were added to each well of the plate and allowed to react at 30° C. for 60 minutes. Then, Fluor de Lys® Developer II (BML-KI176) was added thereto and allowed to react for 30 minutes, after which the fluorescence value (Ex 360, Em 460) was measured using a multi-plate reader (Flexstation 3, Molecular Device). The HDAC6 enzyme was tested using human recombinant HDAC6 (382180) (Calbiochem) according to the same protocol as the HDAC1 enzyme activity test method. Based on the resulting values, each IC50 value was calculated using GraphPad Prism4.0 program.

[2] = molecular target: T2, human recombinant HDAC1 (Homo sapiens, UniProt Q13547); experiment: HDAC1 enzyme activity inhibition assay (in vitro, fluorimetric); type: biochemical; conditions: human recombinant HDAC1, fluorimetric kit, 30° C. 60 minutes
T2 construct: purchased Enzo Life Science BML-SE456
T2 sequence (Q13547 whole entry): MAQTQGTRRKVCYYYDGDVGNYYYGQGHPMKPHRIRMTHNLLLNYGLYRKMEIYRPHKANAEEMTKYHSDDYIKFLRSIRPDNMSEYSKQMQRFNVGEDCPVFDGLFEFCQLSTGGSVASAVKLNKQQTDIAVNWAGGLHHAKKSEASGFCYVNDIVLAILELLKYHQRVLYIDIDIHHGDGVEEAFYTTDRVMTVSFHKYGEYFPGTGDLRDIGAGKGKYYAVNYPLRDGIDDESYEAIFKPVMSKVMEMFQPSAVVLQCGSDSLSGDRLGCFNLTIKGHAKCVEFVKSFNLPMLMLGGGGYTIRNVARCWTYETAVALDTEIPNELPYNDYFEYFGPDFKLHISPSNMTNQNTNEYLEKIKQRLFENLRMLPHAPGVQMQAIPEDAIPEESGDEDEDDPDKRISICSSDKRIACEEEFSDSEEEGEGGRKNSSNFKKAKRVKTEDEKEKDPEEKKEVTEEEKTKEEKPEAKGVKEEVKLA
Protocol: as §1, §2

| HDAC6 selectivity (fold) [1] | pIC50 [1] | pIC50 [2] | Structure (SMILES) |
| --- | --- | --- | --- |
| >65 fold | 6.81 | < 5.00 | C[C@@H]1CN(C(=O)c2cccnc2)C[C@H](C)N1Cc1ccc(C(=O)NO)cc1 [Compound 112, 4-(((2S,6R)-2,6-dimethyl-4-nicotinoylpiperazin-1-yl)methyl)-N-hydroxybenzamide] |
| 27 fold | 6.98 | 5.55 | C[C@@H]1CN(S(=O)(=O)c2cccnc2)C[C@H](C)N1Cc1ccc(C(=O)NO)cc1 [Compound 113, 4-(((2S,6R)-2,6-dimethyl-4-(pyridin-3-ylsulfonyl)piperazin-1-yl)methyl)-N-hydroxybenzamide] |
| 13 fold | 6.73 | 5.62 | C[C@@H]1CN(C(=O)c2cccs2)C[C@H](C)N1Cc1ccc(C(=O)NO)cc1 [Compound 114, 4-(((2S,6R)-2,6-dimethyl-4-(thiophene-2-carbonyl)piperazin-1-yl)methyl)-N-hydroxybenzamide] |
| 18 fold | 6.74 | 5.49 | C[C@@H]1CN(C(=O)c2ccco2)C[C@H](C)N1Cc1ccc(C(=O)NO)cc1 [Compound 115, 4-(((2S,6R)-4-(furan-2-carbonyl)-2,6-dimethylpiperazin-1-yl)methyl)-N-hydroxybenzamide] |
| 48 fold | 6.95 | 5.26 | C[C@@H]1CN(Cc2ccccc2Cl)C[C@H](C)N1Cc1ccc(C(=O)NO)cc1 [Compound 118, 4-(((2S,6R)-4-(2-chlorobenzyl)-2,6-dimethylpiperazin-1-yl)methyl)-N-hydroxybenzamide] |
| 26 fold | 6.51 | 5.09 | C[C@@H]1CN(c2ccc(F)cc2)C[C@H](C)N1Cc1ccc(C(=O)NO)cc1 [Compound 119, 4-(((2S,6R)-4-(4-fluorophenyl)-2,6-dimethylpiperazin-1-yl)methyl)-N-hydroxybenzamide] |
| 304 fold | 7.74 | 5.26 | C[C@@H]1CN(Cc2ccc(C(=O)NO)cc2)C[C@H](C)N1C(=O)c1ccccc1Cl [Compound 120, 4-(((3R,5S)-4-(2-chlorobenzoyl)-3,5-dimethylpiperazin-1-yl)methyl)-N-hydroxybenzamide] |
| 407 fold | 7.54 | 4.93 | C[C@@H]1CN(Cc2ccc(C(=O)NO)cc2)C[C@H](C)N1C(=O)c1cccc(Cl)c1 [Compound 121, 4-(((3R,5S)-4-(3-chlorobenzoyl)-3,5-dimethylpiperazin-1-yl)methyl)-N-hydroxybenzamide] |
| 717 fold | 8.30 | 5.44 | C[C@@H]1CN(Cc2ccc(C(=O)NO)cc2)C[C@H](C)N1C(=O)c1ccc(Cl)cc1 [Compound 122, 4-(((3R,5S)-4-(4-chlorobenzoyl)-3,5-dimethylpiperazin-1-yl)methyl)-N-hydroxybenzamide] |
| 2584 fold | 8.22 | 4.81 | C[C@@H]1CN(Cc2ccc(C(=O)NO)cc2)C[C@H](C)N1C(=O)c1ccccn1 [Compound 123, 4-(((3R,5S)-3,5-dimethyl-4-picolinoylpiperazin-1-yl)methyl)-N-hydroxybenzamide] |
| >3333 fold | 8.52 | < 5.00 | C[C@@H]1CN(Cc2ccc(C(=O)NO)cc2)C[C@H](C)N1C(=O)c1ccco1 [Compound 125, 4-(((3R,5S)-4-(furan-2-carbonyl)-3,5-dimethylpiperazin-1-yl)methyl)-N-hydroxybenzamide] |
| 1525 fold | 8.40 | 5.21 | C[C@@H]1CN(Cc2ccc(C(=O)NO)cc2)C[C@H](C)N1C(=O)c1cccs1 [Compound 126, 4-(((3R,5S)-3,5-dimethyl-4-(thiophene-2-carbonyl)piperazin-1-yl)methyl)-N-hydroxybenzamide] |
| >909 fold | 7.96 | < 5.00 | C[C@@H]1CN(Cc2ccc(C(=O)NO)cc2)C[C@H](C)N1Cc1ccccc1Cl [Compound 127, 4-(((3R,5S)-4-(2-chlorobenzyl)-3,5-dimethylpiperazin-1-yl)methyl)-N-hydroxybenzamide] |
| 5540 fold | 8.70 | 4.95 | C[C@@H]1CN(Cc2ccc(C(=O)NO)cc2)C[C@H](C)N1Cc1cccc(Cl)c1 [Compound 128, 4-(((3R,5S)-4-(3-chlorobenzyl)-3,5-dimethylpiperazin-1-yl)methyl)-N-hydroxybenzamide] |
| 519 fold | 7.48 | 4.77 | C[C@@H]1CN(Cc2ccc(C(=O)NO)cc2)C[C@H](C)N1Cc1ccco1 [Compound 145, 4-(((3R,5S)-4-(furan-2-ylmethyl)-3,5-dimethylpiperazin-1-yl)methyl)-N-hydroxybenzamide] |
| >90 fold | 6.95 | < 5.00 | CCN1[C@H](C)CN(Cc2ccc(C(=O)NO)cc2)C[C@@H]1C [Compound 147, 4-(((3R,5S)-4-ethyl-3,5-dimethylpiperazin-1-yl)methyl)-N-hydroxybenzamide] |
| 132 fold | 6.93 | 4.81 | CCCN1[C@H](C)CN(Cc2ccc(C(=O)NO)cc2)C[C@@H]1C [Compound 148, 4-(((3R,5S)-3,5-dimethyl-4-propylpiperazin-1-yl)methyl)-N-hydroxybenzamide] |
| >125 fold | 7.10 | < 5.00 | C[C@@H]1CN(Cc2ccc(C(=O)NO)cc2)C[C@H](C)N1CC(F)(F)F [Compound 149, 4-(((3R,5S)-3,5-dimethyl-4-(2,2,2-trifluoroethyl)piperazin-1-yl)methyl)-N-hydroxybenzamide] |
| 44 fold | 6.71 | 5.08 | C[C@@H]1CN(CCCCCC(=O)NO)C[C@H](C)N1Cc1ccccc1 [Compound 154, 6-((3R,5S)-4-benzyl-3,5-dimethylpiperazin-1-yl)-N-hydroxyhexanamide] |
| 109 fold | 7.48 | 5.44 | C[C@@H]1CN(Cc2ccc(C(=O)NO)cc2)C[C@H](C)N1C(=O)Nc1ccccc1 [Compound 159, (2S,6R)-4-(4-(hydroxycarbamoyl)benzyl)-2,6-dimethyl-N-phenylpiperazine-1-carboxamide] |
| 177 fold | 7.30 | 5.06 | Cc1ccccc1NC(=O)N1[C@H](C)CN(Cc2ccc(C(=O)NO)cc2)C[C@@H]1C [Compound 160, (2S,6R)-4-(4-(hydroxycarbamoyl)benzyl)-2,6-dimethyl-N-o-tolylpiperazine-1-carboxamide] |
| 182 fold | 7.80 | 5.54 | C[C@@H]1CN(Cc2ccc(C(=O)NO)cc2)C[C@H](C)N1C(=O)NCc1ccccc1 [Compound 161, (2S,6R)-N-benzyl-4-(4-(hydroxycarbamoyl)benzyl)-2,6-dimethylpiperazine-1-carboxamide] |

| Structure (SMILES) | HDAC6 selectivity (fold) [1] | pIC50 [1] | pIC50 [2] |
| --- | --- | --- | --- |
| C[C@@H]1CN(Cc2ccc(C(=O)NO)cc2)C[C@H](C)N1C(=O)Cc1ccccc1 [Compound 146, 4-(((3R,5S)-3,5-dimethyl-4-(2-phenylacetyl)piperazin-1-yl)methyl)-N-hydroxybenzamide] | 314 fold | 7.72 | 5.22 |
